Data reported in ChEMBL document CHEMBL3627630, “Fragment-based discovery of potent ERK2 pyrrolopyrazine inhibitors” (Bioorg Med Chem Lett, 2015).
pIC50, pKd: −log10 of the molar value.

biological target: T1, Mitogen-activated protein kinase 1 (Homo sapiens, UniProt P28482); assay: Binding affinity to ERK2 (unknown origin) by surface plasmon resonance assay
T1 sequence (P28482 whole entry): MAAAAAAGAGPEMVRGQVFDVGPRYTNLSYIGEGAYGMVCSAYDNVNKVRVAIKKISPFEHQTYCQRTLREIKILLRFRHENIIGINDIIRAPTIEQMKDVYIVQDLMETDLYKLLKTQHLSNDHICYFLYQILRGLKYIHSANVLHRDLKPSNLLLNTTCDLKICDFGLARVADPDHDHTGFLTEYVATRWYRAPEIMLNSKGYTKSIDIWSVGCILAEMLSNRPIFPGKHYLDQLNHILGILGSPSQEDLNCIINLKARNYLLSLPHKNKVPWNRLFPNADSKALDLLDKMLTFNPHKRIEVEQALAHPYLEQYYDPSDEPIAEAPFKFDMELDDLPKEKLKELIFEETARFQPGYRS

| pKd | Structure (SMILES) |
| --- | --- |
| 3.90 | Brc1cnc2[nH]cc(I)c2n1 |
| 4.01 | Brc1c[nH]c2nccnc12 |
| 3.46 | c1cnc2[nH]ccc2n1 |

More lines, now with the values behind:

| Structure (SMILES) | pKd |
| --- | --- |
| Brc1cnc2[nH]ccc2n1 | 3.50 |
| c1ccc(CNc2ncnc3nc[nH]c23)cc1 [6-BENZYLAMINOPURINE] | 3.61 |

biological target: T1, Mitogen-activated protein kinase 1; assay: Inhibition of ERK2 (unknown origin) using 5FAM-IPTSPITTTYFFFKKK as substrate after 1 hr by LC3K assay

| pIC50 | Structure (SMILES) |
| --- | --- |
| 4.67 | Fc1cc(-c2cnc3[nH]ccc3n2)ccn1 |
| 6.03 | c1cc(-c2cnc3[nH]cc(-c4ccn[nH]4)c3n2)ccn1 |
| 7.04 | CC(C)Cn1cc(-c2c[nH]c3ncc(-c4ccncc4)nc23)cn1 |
| 5.23 | c1cc2nc(-c3cn[nH]c3)cnc2[nH]1 |
| 4.15 | c1cncc(-c2cnc3[nH]ccc3n2)c1 |
| 4.05 | COc1ccc(-c2cnc3[nH]ccc3n2)cc1 |
| 6.21 | OCCCn1cc(-c2c[nH]c3ncc(-c4ccncc4)nc23)cn1 |
| 4.30 | c1ccc(-c2cnc3[nH]ccc3n2)cc1 |
| 4.91 | Oc1ccc(-c2cnc3[nH]ccc3n2)cc1 |
| 6.20 | Cc1ccc(-c2c[nH]c3ncc(-c4ccncc4)nc23)cn1 |
| 5.98 | c1ncc(-c2c[nH]c3ncc(-c4cn[nH]c4)nc23)cn1 |
| 6.38 | c1cc(-c2cnc3[nH]cc(-c4cnn(CCN5CCOCC5)c4)c3n2)ccn1 |
| 5.66 | c1cc(-c2cnc3[nH]cc(-c4cncnc4)c3n2)ccn1 |
| < 3.70 | NC(=O)c1cccc(-c2cnc3[nH]ccc3n2)c1 |
| 6.74 | Clc1ccc(-c2c[nH]c3ncc(-c4ccncc4)nc23)cn1 |
| 4.85 | Cc1n[nH]c(C)c1-c1cnc2[nH]ccc2n1 |

More lines, now with the values behind:

| Structure (SMILES) | pIC50 |
| --- | --- |
| c1cncc(-c2c[nH]c3ncc(-c4cn[nH]c4)nc23)c1 | 6.55 |
| c1cncc(-c2cnc3[nH]cc(-c4cccnc4)c3n2)c1 | 6.39 |
| Nc1ccc(-c2c[nH]c3ncc(-c4ccncc4)nc23)cn1 | 6.33 |
| Cn1cc(-c2cnc3[nH]ccc3n2)cn1 | 4.65 |
| Oc1cccc(-c2cnc3[nH]ccc3n2)c1 | < 3.70 |
| Fc1ccc(-c2cnc3[nH]ccc3n2)cc1 | 4.53 |
| c1ccc(CCn2cc(-c3c[nH]c4ncc(-c5ccncc5)nc34)cn2)cc1 | 5.70 |
| Brc1cnc2[nH]ccc2n1 | < 3.70 |
| c1cc(-c2cnc3[nH]cc(-c4cn[nH]c4)c3n2)ccn1 | 6.45 |
| c1cc2nc(-c3ccc4cn[nH]c4c3)cnc2[nH]1 | 4.50 |
| CCCn1cc(-c2c[nH]c3ncc(-c4ccncc4)nc23)cn1 | 7.15 |
| CCn1cc(-c2c[nH]c3ncc(-c4ccncc4)nc23)cn1 | 6.83 |
| COc1ccc(-c2c[nH]c3ncc(-c4ccncc4)nc23)cn1 | 6.60 |
| Cc1n[nH]cc1-c1cnc2[nH]ccc2n1 | 4.65 |
| c1ccc(Cn2cc(-c3c[nH]c4ncc(-c5ccncc5)nc34)cn2)cc1 | 7.43 |
| NC(=O)c1ccc(-c2cnc3[nH]ccc3n2)cc1 | 4.36 |
| c1cc(-c2cnc3[nH]ccc3n2)ccn1 | 4.93 |

biological target: T1, Mitogen-activated protein kinase 1; assay: Inhibition of human recombinant ERK2 expressed in Escherichia coli using Omnia peptide S/T17 as substrate measured every 50 seconds for 30 mins

| pIC50 | Structure (SMILES) |
| --- | --- |
| 7.14 | Cn1cc(-c2c[nH]c3ncc(-c4ccncc4)nc23)cn1 |
